From patent US20190185479A1, “BICYCLIC NITROGENATED HETEROCYCLIC COMPOUND” (MITSUBISHI TANABE PHARMA CORPORATION, priority 2016, published 2019) come the findings set out here.

Holding throughout (assay type): biochemical
One assay addresses T1, Human PDE7B (hPDE7B) (Homo sapiens, UniProt Q9NP56).
T1 construct: made in house; host or cells: COS-7 cells
The assay is described as follows: Measurement of PDE7 inhibitory activity (Experimental Example 1; residual cAMP, LANCE Ultra cAMP TR-FRET). The note with it: cAMP 3 nmol/L, room temperature 60 minutes. The gist of the method:
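hPDE7B from transfected COS-7 cells reacted with 3 nmol/L cAMP (final) and compound (2% DMSO) in 50 mmol/L Tris-HCl pH 7.5, 1 mmol/L MgCl2, 0.1% BSA, 0.5 mmol/L DTT, 60 min at room temperature. Reaction stopped with IBMX; residual cAMP measured by TR-FRET. Inhibition scaled between no-compound and no-enzyme controls.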

For another assay, the target named is T2, hPDE4D (Homo sapiens, UniProt Q08499).
T2 construct: purchased SB Drug Discovery
T2 sequence (Q08499 whole entry): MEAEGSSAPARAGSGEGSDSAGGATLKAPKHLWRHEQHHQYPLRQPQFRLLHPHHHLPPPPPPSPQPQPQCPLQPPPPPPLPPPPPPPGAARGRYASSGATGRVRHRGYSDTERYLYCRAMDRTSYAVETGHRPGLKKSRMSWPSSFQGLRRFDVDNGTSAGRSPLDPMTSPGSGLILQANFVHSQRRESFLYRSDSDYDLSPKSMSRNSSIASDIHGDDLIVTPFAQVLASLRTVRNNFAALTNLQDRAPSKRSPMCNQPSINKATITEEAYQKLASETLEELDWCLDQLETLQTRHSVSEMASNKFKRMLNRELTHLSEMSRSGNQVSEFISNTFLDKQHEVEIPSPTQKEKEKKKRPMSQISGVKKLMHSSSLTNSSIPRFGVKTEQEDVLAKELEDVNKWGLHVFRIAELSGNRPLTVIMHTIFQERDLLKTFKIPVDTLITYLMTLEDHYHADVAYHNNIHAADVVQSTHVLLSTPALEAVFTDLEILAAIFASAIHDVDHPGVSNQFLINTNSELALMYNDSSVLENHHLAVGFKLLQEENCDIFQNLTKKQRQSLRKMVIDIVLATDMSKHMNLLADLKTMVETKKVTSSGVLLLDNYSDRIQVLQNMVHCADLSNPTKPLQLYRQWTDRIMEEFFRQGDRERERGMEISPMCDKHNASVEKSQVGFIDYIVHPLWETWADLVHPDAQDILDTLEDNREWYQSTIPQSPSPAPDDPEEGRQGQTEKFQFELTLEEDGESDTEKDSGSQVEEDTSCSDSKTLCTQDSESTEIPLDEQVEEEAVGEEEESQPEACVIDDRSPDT
The assay is described as follows: PDE4 inhibition assay (IC50), Experimental Example 3. The note with it: for inhibition at 10 µM: at 10 μmol/L; for IC50: hPDE4D, read-out: PDE inhibition assay IC50, PDE4. In outline:
(§1)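 Recombinant human enzymes incubated with compound and 3 nmol/L cAMP (final) in Tris-HCl pH 7.5 buffer with MgCl2, BSA, DTT, 2% DMSO final, 60 min at room temperature. Residual cAMP measured by TR-FRET (LANCE Ultra), reaction stopped with 0.5 mmol/L IBMX. IC50 from inhibition relative to no-compound (0%) and no-enzyme (100%) controls.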

The next assay has as its target T3, hPDE8B (Homo sapiens, UniProt O95263).
T3 construct: purchased SB Drug Discovery
The assay is described as follows: PDE8 inhibition assay (IC50), Experimental Example 3. The note with it: for inhibition at 10 µM: at 10 μmol/L; for IC50: hPDE8B, read-out: PDE inhibition assay IC50, PDE8. The gist of the method: as §1

A further assay concerns the target hPDE10A (Homo sapiens, UniProt Q9Y233). The assay is described as follows: PDE10 inhibition assay (IC50), Experimental Example 3. Conditions: for inhibition at 10 µM: at 10 μmol/L; for inhibition at 10 µM / inhibition at 100 µM: read-out: inhibition rate (%) at prescribed concentration, PDE10; for IC50: hPDE10A, read-out: PDE inhibition assay IC50, PDE10; for inhibition at 100 µM: at 100 μmol/L. In outline:
as §1

Setting [1] is: read-out: inhibition rate (%) at prescribed concentration, PDE4.
Setting [2] is: read-out: inhibition rate (%) at prescribed concentration, PDE8.

T3 sequence (O95263 whole entry): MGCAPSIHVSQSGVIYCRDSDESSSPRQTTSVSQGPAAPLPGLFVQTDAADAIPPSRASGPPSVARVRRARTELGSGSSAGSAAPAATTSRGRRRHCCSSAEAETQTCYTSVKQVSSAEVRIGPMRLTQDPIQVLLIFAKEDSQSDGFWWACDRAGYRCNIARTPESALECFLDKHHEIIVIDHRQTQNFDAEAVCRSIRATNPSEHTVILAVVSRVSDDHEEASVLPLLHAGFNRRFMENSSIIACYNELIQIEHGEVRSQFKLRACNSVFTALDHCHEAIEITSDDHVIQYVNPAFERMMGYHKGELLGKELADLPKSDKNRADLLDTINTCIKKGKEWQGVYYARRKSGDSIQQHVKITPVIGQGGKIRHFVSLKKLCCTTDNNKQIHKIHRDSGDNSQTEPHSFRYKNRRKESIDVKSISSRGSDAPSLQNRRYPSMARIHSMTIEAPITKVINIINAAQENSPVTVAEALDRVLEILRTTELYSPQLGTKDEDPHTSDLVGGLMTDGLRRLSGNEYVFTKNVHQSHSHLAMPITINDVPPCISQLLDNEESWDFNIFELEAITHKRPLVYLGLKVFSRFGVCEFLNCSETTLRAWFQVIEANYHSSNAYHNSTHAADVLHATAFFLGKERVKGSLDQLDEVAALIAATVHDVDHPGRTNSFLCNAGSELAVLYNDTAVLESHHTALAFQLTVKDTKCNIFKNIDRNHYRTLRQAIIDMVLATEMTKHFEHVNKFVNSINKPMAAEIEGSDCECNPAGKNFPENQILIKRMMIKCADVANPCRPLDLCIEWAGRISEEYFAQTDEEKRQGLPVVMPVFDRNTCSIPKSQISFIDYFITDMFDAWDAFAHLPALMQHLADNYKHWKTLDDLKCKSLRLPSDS
T1 sequence (Q9NP56 whole entry): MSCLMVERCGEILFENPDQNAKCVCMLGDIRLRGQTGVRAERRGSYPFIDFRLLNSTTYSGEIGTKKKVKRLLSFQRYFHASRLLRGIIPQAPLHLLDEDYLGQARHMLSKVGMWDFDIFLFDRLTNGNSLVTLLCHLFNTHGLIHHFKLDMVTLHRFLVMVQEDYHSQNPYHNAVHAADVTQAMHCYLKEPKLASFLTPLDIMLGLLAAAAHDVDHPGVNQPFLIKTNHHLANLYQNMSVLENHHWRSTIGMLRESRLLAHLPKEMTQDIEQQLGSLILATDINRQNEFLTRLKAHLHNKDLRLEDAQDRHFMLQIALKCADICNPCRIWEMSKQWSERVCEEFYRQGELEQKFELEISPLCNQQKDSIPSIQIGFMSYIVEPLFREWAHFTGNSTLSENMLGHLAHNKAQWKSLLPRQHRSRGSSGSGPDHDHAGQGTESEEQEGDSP
Sequence of hPDE10A (Q9Y233 290-1055 limits assumed): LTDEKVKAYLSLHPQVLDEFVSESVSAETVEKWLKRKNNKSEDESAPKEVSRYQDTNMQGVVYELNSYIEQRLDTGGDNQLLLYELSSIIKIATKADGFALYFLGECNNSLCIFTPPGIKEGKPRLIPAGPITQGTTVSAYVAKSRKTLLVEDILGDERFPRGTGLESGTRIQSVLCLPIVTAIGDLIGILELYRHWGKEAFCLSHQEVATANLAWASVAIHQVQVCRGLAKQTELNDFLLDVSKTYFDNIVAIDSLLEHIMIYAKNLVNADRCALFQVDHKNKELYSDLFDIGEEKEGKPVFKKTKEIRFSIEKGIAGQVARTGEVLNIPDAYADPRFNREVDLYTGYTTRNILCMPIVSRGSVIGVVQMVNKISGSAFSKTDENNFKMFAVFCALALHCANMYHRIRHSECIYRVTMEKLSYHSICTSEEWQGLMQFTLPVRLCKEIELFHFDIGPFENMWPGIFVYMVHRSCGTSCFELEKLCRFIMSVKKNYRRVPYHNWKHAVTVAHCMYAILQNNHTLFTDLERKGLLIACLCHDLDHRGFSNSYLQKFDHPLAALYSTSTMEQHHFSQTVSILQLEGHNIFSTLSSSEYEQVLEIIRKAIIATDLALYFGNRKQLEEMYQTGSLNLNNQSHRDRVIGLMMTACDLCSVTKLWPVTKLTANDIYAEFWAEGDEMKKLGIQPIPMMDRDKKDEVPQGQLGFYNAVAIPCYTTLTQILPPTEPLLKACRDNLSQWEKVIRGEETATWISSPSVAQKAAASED

Regarding `Nc1cncn2c(C3CCCCC3)nnc12` [Example 189, 3-cyclohexyl[1,2,4]triazolo[4,3-c]pyrimidin-8-amine], on Human PDE7B (hPDE7B), the IC50 (usually the concentration at which inhibition is half-maximal) amounted to 0.47 µM. Further, the inhibition at 10 µM at hPDE4D (setting [1]) was 22%; at hPDE8B (setting [2]), 24%; at hPDE10A, 0.9%.
On to `CC1CCC(C)(C)CN1c1nnc2c(N)nccn12` (single isomer, unassigned) [Example 236, 3-(2,5,5-trimethylpiperidin-1-yl) [1,2,4]triazolo[4,3-a]pyrazin-8-amine], for which the IC50 at Human PDE7B (hPDE7B) turned out to be 0.033 µM; on hPDE4D, 0.036 µM; at hPDE8B, 0.86 µM; on hPDE10A it was 0.16 µM.
In the same order, the values of `CC1(C)CCCN(c2nnc3c(N)ncc(C4CC4)n23)C1` [Example 43, 5-cyclopropyl-3-(3,3-dimethylpiperidin-1-yl) [1,2,4]triazolo[4,3-a]pyrazin-8-amine] are 0.03 µM, 2.19 µM, 1.52 µM and 2.33 µM.
With `Nc1ncnc2c1nnn2C1CCCCC1F` (single isomer, unassigned) [Example 194, 3-(cis-2-fluorocyclohexyl)-3H-[1,2,3]triazolo[4,5-d]pyrimidin-7-amine], the IC50 at Human PDE7B (hPDE7B) stood at 0.04 µM; on hPDE4D it was 6.98 µM; on hPDE10A it was 12.2 µM. In addition, the inhibition at 1 µM on hPDE8B (at 1 μmol/L, read-out: inhibition rate (%) at prescribed concentration, PDE8) amounted to 79%.
Regarding `Nc1nccn2c(C3CCCC4(CC4)C3)nnc12` (single isomer, unassigned) [Example 208, 3-(spiro[2,5]oct-5-yl) [1,2,4]triazolo[4,3-a]pyrazin-8-amine], the half-inhibitory concentration (IC50) against Human PDE7B (hPDE7B) is below 0.01 µM; on hPDE4D it was 10.3 µM; at hPDE8B it was 3.4 µM; at hPDE10A it was 8.6 µM.
On to `Nc1nccn2c(C3CC4(CC4)C3)nnc12` [Example 20], for which the IC50 came out at 0.08 µM on Human PDE7B (hPDE7B) and 1.58 µM at hPDE8B. Also, the figures for the inhibition at 10 µM at hPDE4D (setting [1]) and at hPDE10A were 40% and 22%, respectively.
For the compound `CC1(C)CCCC(c2nnc3c(N)nccn23)C1` (single isomer, unassigned) [Example 207, 3-(3,3-dimethylcyclohexyl) [1,2,4]triazolo[4,3-a]pyrazin-8-amine], the IC50 on Human PDE7B (hPDE7B) is below 0.01 µM; at hPDE4D, 10.5 µM; at hPDE8B it was 1.5 µM; at hPDE10A, 10.2 µM.
Regarding `CC(C)(C)OC(=O)N1CCC[C@H](c2nnc3c(N)nccn23)C1` [Example 167], the IC50 at Human PDE7B (hPDE7B) amounted to 0.06 µM; at hPDE10A, 3.7 µM. The inhibition at 0.1 µM turned out to be 66% on hPDE4D (at 0.1 μmol/L, read-out: inhibition rate (%) at prescribed concentration, PDE4) and 98% at hPDE8B (at 0.1 μmol/L, read-out: inhibition rate (%) at prescribed concentration, PDE8).
As to `Cc1cnc(N)c2nnc(N3CCCC(C)(C)C3)n12` [Example 80, 3-(3,3-dimethylpiperidin-1-yl)-5-methyl[1,2,4]triazolo[4,3-a]pyrazin-8-amine], the IC50 on Human PDE7B (hPDE7B) was found to be 0.003 µM; on hPDE4D, 6 µM; at hPDE8B it was 3 µM; at hPDE10A it was 8 µM.
In the same order, the values of `CC1CCN(c2nnc3c(N)nccn23)CC1C` (single isomer, unassigned) [Example 230, 3-(3,4-dimethylpiperidin-1-yl) [1,2,4]triazolo[4,3-a]pyrazin-8-amine] are 0.08 µM, 4 µM, 2.9 µM and 19.6 µM.
For `Nc1nccn2c(C3CCCOC3)nnc12` (stereo not shown) [Example 169], the figures for the IC50 against Human PDE7B (hPDE7B), on hPDE8B and on hPDE10A were 0.09 µM, 1.74 µM and 20.8 µM, respectively. Further, the inhibition at 10 µM at hPDE4D (setting [1]) stood at 33%.
As for `Nc1nccn2c(C3CCCC3)nnc12` [Example 161], the IC50 was 0.11 µM at Human PDE7B (hPDE7B), 5.5 µM at hPDE4D and 1.77 µM on hPDE8B. For the same compound, on hPDE10A, the inhibition at 10 µM amounted to 27%.
Take `CC1(C)CCCN(c2nnc3c(N)ncc(C#N)n23)C1` [Example 2, 8-amino-3-(3,3-dimethylpiperidin-1-yl) [1,2,4]triazolo[4,3-a]pyrazine-5-carbonitrile]: the IC50 at Human PDE7B (hPDE7B) was found to be 0.0007 µM; on hPDE8B it was 1.62 µM; at hPDE10A it was 6.23 µM. Moreover, the inhibition at 1 µM on hPDE4D (at 1 μmol/L, read-out: inhibition rate (%) at prescribed concentration, PDE4) was found to be 61%.
With `C[C@@H]1C[C@H](C)CN(c2nnc3c(N)nccn23)C1` [Example 52], the IC50 is 0.08 µM against Human PDE7B (hPDE7B), 8.19 µM on hPDE4D, 1.16 µM on hPDE8B and 6.8 µM on hPDE10A.
As to `Nc1ncnc2c1nnn2C1CCCCC1F` (single isomer, unassigned) [Example 195, 3-(cis-2-fluorocyclohexyl)-3H-[1,2,3]triazolo[4,5-d]pyrimidin-7-amine], the IC50 at Human PDE7B (hPDE7B) is 0.05 µM; at hPDE4D it was 5.7 µM; at hPDE8B it was 1.41 µM; on hPDE10A, 30.6 µM.
Turning to `C[C@H]1C[C@H](n2nnc3c(N)ncnc32)CC(C)(C)C1` (racemic) [Example 109, 3-(trans-3,3,5-trimethylcyclohexyl)-3H-[1,2,3]triazolo[4,5-d]pyrimidin-7-amine], the IC50 is 0.04 µM against Human PDE7B (hPDE7B), 99.2 µM on hPDE4D and 12.9 µM on hPDE8B. The inhibition at 100 µM on hPDE10A stood at 24%.
In the case of `Nc1ncnc2c1cnn2C1CCCCC1` [Example 181], on Human PDE7B (hPDE7B), the half-inhibitory concentration (IC50) was 0.34 µM. For the same compound, the inhibition at 10 µM at hPDE4D (setting [1]) is 21%; on hPDE8B (setting [2]), 24%; at hPDE10A, 49%.
Regarding `CC1CC(C)CN(c2nnc3c(N)ncc(C#N)n23)C1` (racemic) [Example 54, 8-amino-3-(3,5-dimethylpiperidin-1-yl) [1,2,4]triazolo[4,3-a]pyrazine-5-carbonitrile], the IC50 at Human PDE7B (hPDE7B) was 0.04 µM; at hPDE4D it was 7.86 µM; at hPDE8B, 3.35 µM. The inhibition at 100 µM on hPDE10A amounted to 30%.
`Nc1ncnc2c1nnn2C1CCC(F)(F)CC1` [Example 104]: the IC50 on Human PDE7B (hPDE7B) came to 0.17 µM; on hPDE4D, 9.45 µM; on hPDE8B it was 2.06 µM. At hPDE10A, the inhibition at 10 µM was 25%.
